Patent US20070293517A1, “Derivatives Of Chemotherapeutic Agents With A Formaldehyde Releasing Moiety” (RAMOT AT TEL AVIV UNIVERSITY LTD., priority 2004, published 2007)

Columns and labels:
[1] = system: various cell lines; experiment: Dose response studies in various cell lines, absence and presence of semicarbazide; assay type: cell-based; settings: 0.5 mM, absence of chemotherapeutic agents
Procedure: (§1) Proliferation assay: cells at a density of 3-5×10^4 cells/ml in 200 μl medium supplemented with 10% FCS were seeded in tissue culture 96-well plates for 24 hours, and were then exposed for 72 hours to a novel derivative of a chemotherapeutic agent (in quadruplicate) as specified. After 3 days, the cells were rinsed with PBS, and fixed with ethanol (70%) for 30 minutes. The ethanol was thereafter discarded, 200 μl of 10 μg/ml HOECHST fluorescent dye (Sigma) solubilized in PBS were added and the fluorescence was measured at 390-460 nm with a FluoStar fluorometer. MTT solution (10 ml of 5 mg/ml MTT (Sigma) in PBS) was added, and the plate was incubated for 3 hours. Formazan crystals were dissolved with 140 ml of 0.04 HCl-isopropanol. The optical density of the wells was measured with a microplate reader at 540 nm.
Semicarbazide sensitive amine oxidase is a source of formaldehyde and is therefore a marker for the effect of formaldehyde. It has been shown that semicarbazide traps formaldehyde and reduces its concentration inside the cell (Nudelman et al. J. Med. Chem., 2005, 48, 1047-1054). Thus, the critical role of formaldehyde can be confirmed by reversal of formaldehyde-mediated effects by the addition of semicarbazide.
Tables 3 and 4 below, as well as FIGS. 7A, 7B and 8A-8D present the dose response studies performed with various cell lines in the absence and presence of semicarbazide, the formaldehyde trapping agent.

[2] = system: MES SA DXS; experiment: Proliferation assay, MES SA DXS cells; assay type: cell-based, human
Description: (§2) Cells: The human breast cancer cell lines MCF-7 and MCF-7 DX, were obtained from Dr. R. Supino (Laboratorio Oncologia, Milano, Italy); the murine 3LLD122 highly metastatic Lewis lung carcinoma cell line was obtained from Dr. Eisenbach L, the Weizmann Inst., Israel. The following cell lines were purchased from the ATCC, USA: CT-26, an N-nitroso-N-methylurethane-(NNMU) induced murine (BALB-C) colon carcinoma; Panc02, a mouse (C57/Bl) pancreas adenocarcinoma; HT-49, a human colorectal adenocarcinoma; LS1034, a multidrug resistant human colorectal carcinoma; BxPC-3 human pancreas adenocarcinoma; MES-SA and MES-SA-DXS, human uterine sarcoma sensitive and multidrug resistant, respectively; and Human prostate carcinoma 22RV1, a subclone of CWR22 cells.
(§3) The cells were maintained in DMEM growth medium supplemented with 10% heat inactivated fetal calf serum, 2 mM glutamine, penicillin (250 units/ml) and streptomycin (125 μg/ml) in a humidified 5% CO2/air atmosphere at 37° C.
as §1
(§4) IC50 and IC90 values were determined from the best-fitted curve where the percentages of survival were 50 or 90 respectively.

[3] = system: MCF-7 DX; experiment: Proliferation assay, MCF-7 DX cells; assay type: cell-based, human
Procedure: (§5) Cells: The human breast cancer cell lines MCF-7 and MCF-7 DX, were obtained from Dr. R. Supino (Laboratorio Oncologia, Milano, Italy); the murine 3LLD122 highly metastatic Lewis lung carcinoma cell line was obtained from Dr. Eisenbach L, the Weizmann Inst., Israel. […]
as §1, with “After 3 days, the cells were rinsed with PBS, and fixed with ethanol (70%) for 30 minutes.” left out, “MTT solution (10 ml of 5 mg/ml MTT (Sigma) in PBS) was added, and the plate was incubated for 3 hours. Formazan crystals were dissolved with 140 ml of 0.04 HCl-isopropanol.” left out
as §4

[4] = system: BXPC-3; experiment: Proliferation assay, BXPC-3 cells; assay type: cell-based, human; settings: Homo sapiens
Description: as §2, §3, §1, §4

[5] = system: HT-29 human colon carcinoma; experiment: Xenograft flank colon carcinoma model, HT29; assay type: in vivo; settings: nude mice
Procedure: Xenograft flank colon carcinoma models: Eight weeks old, male CD1 nude mice (Harlan, Israel) were inoculated sc in the flanks with 5×10^6 HT29 or LS1034 cells. When tumor volume reached 50-100 mm^3, treatment with derivatives of chemotherapeutic agents according to the present embodiments commenced and was given by gavage five times a week for the duration of the experiment at the specified doses. Tumor volume (determined by caliper) and body weights were measured twice weekly. Tumor volume was measured (mm) using the formula for an ellipsoid sphere: Length×Width^2/2=Volume (mm)^3 This commonly used formula was also used to calculate tumor weight, assuming unit density (1 mm^3=1 mg). Serum PSA or CEA: […] At the end of the experiment blood samples were drawn from the eyes of mice (anesthetized slightly by inhalation of ether) or from the hearts of sacrificed animals.

[6] = system: Panc 02; experiment: Proliferation assay, Panc 02 cells; assay type: cell-based; settings: Mus musculus, Panc02
Description: as §2, §3, §1, §4

[7] = system: sensitive and resistant uterine cancer cells (MES-SA, MES-SA DXS); experiment: Proliferation/survival, sensitive and resistant uterine cancer cells (both lines); assay type: cell-based, human
Description: as §2, §1, §4

[8] = system: HT-29; experiment: Proliferation assay, HT-29 cells; assay type: cell-based, human
[9] = system: CT-26; experiment: Proliferation assay, CT-26 cells; assay type: cell-based, murine; settings: Mus musculus, CT26; CT-26
Description: as §2, §3, §1, §4

[10] = system: LS-1034; experiment: Proliferation assay, LS-1034 cells; assay type: cell-based, human; settings: Homo sapiens
Description: as §2, §3, §1, §4

[11] = system: MES SA; experiment: Proliferation assay, MES SA cells; assay type: cell-based, human; settings: Homo sapiens
Description: as §2, §3, §1, §4

[12] = system: prostate carcinoma cells 22RV; experiment: Viability of prostate carcinoma cells 22RV; assay type: cell-based, human
Procedure: as §5
as §1, with “After 3 days, the cells were rinsed with PBS, and fixed with ethanol (70%) for 30 minutes.” left out, “MTT solution (10 ml of 5 mg/ml MTT (Sigma) in PBS) was added, and the plate was incubated for 3 hours. Formazan crystals were dissolved with 140 ml of 0.04 HCl-isopropanol.” left out
Apoptosis assay: Cells (2×10^5 cells/ml) were seeded in 24-well plates and incubated with a derivative of a chemotherapeutic agent according to the present embodiments, as specified, for 24 hours. […] Alive, apoptotic and total dead cells were quantitated by flow cytometry using a FACS calibur cytometer (Becton Dickinson).

## NNC(N)=O [Semicarbazide, semicarbazide, reference compound]
[1]
  effect of semicarbazide alone on the cells: did not affect the cells

## COc1cccc2c1C(=O)c1c(O)c3c(c(O)c1C2=O)C[C@@](O)(C(=O)CO)C[C@@H]3O[C@H]1C[C@H](N)[C@H](O)[C@H](C)O1 [Doxorubicin]
[2]
  fold decrease in the inhibitory effect on proliferation, MES-SA DXS compared with the isogenetic non-resistant cell line: approximately 30 fold
[3]
  fold more resistant to doxorubicin, MCF-7 DX compared with MCF cells: approximately 7 fold
[3]; Homo sapiens, MCF7/DX, MCF-7 DX, 7 independent experiments
  IC50: 392 ± 40 µM

## O=c1[nH]c(=O)n(C2CCCO2)cc1F (stereo not drawn) [Tegafur, tegafur, reference compound]
[4]
  IC50: 172 ± 21 µM
  IC90: 688 ± 113 µM
[2]; Homo sapiens, MES SA DXS
  IC50: 405 ± 20 µM
[2]; Homo sapiens, MES SA DXS, tegafur value calculated by extrapolation from the best fitted curve
  IC90: 1470 ± 96 µM
[5]
  CEA level in serum: higher
[5]; P<<0.001
  tumor growth inhibition: substantially inhibited tumor growth
[6]
  IC50: 179 ± 25 µM
  IC90: 637 ± 66 µM
[7]
  maximal cell killing achieved: 80%
[8]; Homo sapiens, HT-29
  IC90: 747 ± 52 µM
[8]; Homo sapiens, HT-29, HT-29
  IC50: 201 ± 15 µM
[9]
  IC50: 136 ± 19 µM
  IC90: 411 ± 23 µM
[10]; LS-1034
  IC90: 1600 ± 240 µM
[10]; LS-1034, LS-1034
  IC50: 519 ± 93 µM
[11]
  IC50: 337 ± 20 µM
[11]; tegafur value calculated by extrapolation from the best fitted curve
  IC90: 1200 ± 97 µM

## CCCC(=O)OCN1C(=O)CCC(N2C(=O)c3ccccc3C2=O)C1=O (stereo not drawn) [AN-438, 2-(1-butroyloxymethyl-2,6-dioxopiperidin-3-yl)isoindoline-1,3-dione]
[12]; prostate carcinoma cells 22RV
  reduction of viability compared with thalidomide: significantly more effective in reducing the viability
[12]; prostate carcinoma cells, 0.5 mM semicarbazide
  effect on viability on addition of semicarbazide: abrogated the effect
[8]; human colon cells HT-29
  reduction of viability compared with thalidomide: significantly more effective in reducing the viability
